Experimental data as given in patent publication US10369105B2, “Nanoparticulate compositions for targeted delivery of acid labile, lipophilic prodrugs of cancer chemotherapeutics and their preparation” (Veiled Therapeutics LLC, priority 2014, dated 2019).

How the values were obtained:
[1] = PK/PD study ATL-4: plasma and tissue concentrations after single IV injection, nontumored mice; type: in vivo, female athymic NCr-nu/nu mice; settings: paclitaxel 18.9 mg/kg single IV
Procedure: Tumor Model; Experiment ATL-4. Animals were nontumored.
Experiment ATL-4: The study consisted of ten groups of three nontumored mice per group for a total of 30 mice on Day 1, one day before the treatment. All treatments were administered as a single IV injection on Day 2.

[2] = MTD/tolerability study ATL-1, IV Q1Dx5, nontumored mice
Procedure: (§1) MTD study consisted of two major phases:
(§2) Material remaining from the dosing emulsion solutions was shipped back to Arbor Therapeutics after the end of the treatment phase. […] The assessment of returned material was carried out side by side with material retained.
(§3) Paclitaxel was included as a reference compound. • Tumor Model:
The studies ATL-1 and ATL-2 consisted each of six groups of five nontumored mice per group for a total of 30 mice on Day 1, the first day of treatment. All treatments were administered intravenously (IV) once a day for five consecutive days (Q1Dx5) beginning on Day 1.
(§4) Animals in Group 5 (Emulsion control) were treated with a drug free formulation (injection volume of 0.21 mL/20 g of body weight).

[3] = test system: human MDA-MB-231 mammary tumor xenografts; assay: Antitumor efficacy study ATL-3, IV Q1Dx5 and Q4Dx3; type: in vivo, human tumor in female athymic NCr-nu/nu mice; settings: for complete tumor regressions: ten mice
Procedure: Experiment ATL-3 was performed to evaluate the antitumor activity of the intravenous (IV) treatment with formulated ART-207 when administered on two different schedules to female, athymic NCr-nu/nu mice implanted subcutaneously (SC) with human MDA-MB-231 mammary tumor xenografts. Paclitaxel was included as a reference compound. • Tumor Model:
Individual tumors of 90 animals grew to 88-216 mg in weight (88-216 mm3 in size) on Day 10 after tumor fragments implantation, the day of treatment initiation. […] The time points are indicated starting from the first day of treatment with formulated ART-207, vehicle control and Paclitaxel. • Study Design: […]
Animals in Groups 2, 3, and 4 were treated with formulated ART-207 which was administered IV on a Q1Dx5 schedule starting on Day 0 (Days 0-4) at doses of 105.2, 78.9, and 52.6 mg/kg/injection, respectively. Animals in Group 5 (Emulsion control) were treated IV on Q1Dx5 schedule starting on Day 0 with a drug free formulation. […] Animals in Group 7 were treated with formulated ART-207 which was administered IV once every four days for a total of three injections (Q4Dx3) starting on Day 0 (Days 0, 4, and 8) at a dose of 78.9 mg/kg/injection. Animals in Group 8 (Emulsion control) were treated IV on a Q4Dx3 schedule starting on Day 0 with a drug free formulation. Animals in Group 9 were treated IV on a Q4Dx3 schedule starting on Day 0 with paclitaxel at a dose of 18.9 mg/kg/injection.

[4] = breast cancer patients; cited from earlier work
[5] = test system: human MDA-MB-231 mammary tumor xenografts; assay: MTD/tolerability and efficacy study ATL-2, IV Q1Dx5, tumored mice
Procedure: as §1, §2, §3
[…] All treatments were administered intravenously (IV) once a day for five consecutive days (Q1Dx5) beginning on Day 1.
as §4

[6] = IV Q1Dx5, formulated ART-207 72.6, 47.1, 35.7 and 23.7 mg/kg/injection, paclitaxel 15 mg/kg/injection
[7] = Study # 2, tumor size 150 mg, Q1Dx5, dose 15 mpk
[8] = paclitaxel 15 mg/kg/injection IV Q1Dx5 (Group 6)
[9] = paclitaxel 18.9 mg/kg/injection IV Q4Dx3 (Group 9)
[10] = Study # 1, tumor size 270 mg, Q1Dx5, dose 15 mpk

## CC(=O)O[C@H]1C(=O)[C@@]2(C)[C@H]([C@H](OC(=O)c3ccccc3)[C@]3(O)C[C@H](OC(=O)[C@H](O)[C@@H](NC(=O)c4ccccc4)c4ccccc4)C(C)=C1C3(C)C)[C@]1(OC(C)=O)CO[C@@H]1C[C@@H]2O [Paclitaxel]
[1]; female, athymic NCr-nu/nu, mouse, plasma, read-out: AUClast for paclitaxel in plasma
  AUC(0-t): 37700 ng·h/mL
[1]; female, athymic NCr-nu/nu, mouse, plasma, read-out: apparent terminal elimination half-life of paclitaxel in plasma (converted)
  half-life: 1 h
[1]; female, athymic NCr-nu/nu, mouse, plasma, read-out: total body clearance of paclitaxel (converted)
  clearance: 8.33 mL/min/kg
[1]; female, athymic NCr-nu/nu, mouse, plasma, read-out: volume of distribution of paclitaxel at steady state
  Vd: 0.658 L/kg
[1]; at 5 minutes (0.083 hours)
  mean peak plasma concentration of paclitaxel: 32.9 µg/mL
[2]; IV Q1Dx5, nontumored mice, no death or more than 20% body weight loss within 14 days of end of treatment
  maximum tolerated dose (MTD): above 15 mg/kg/injection
[2]; [6]
  tolerability / deaths (in words): tolerated without deaths
[3]; [7]
  Survival rate (end of study): 40%
  Tumor free mice (end of study): 40%
[3]; [8]
  animals tumor-free on Day 56: four
  median tumor growth delay: 31.8 days
  complete tumor regressions: five
[3]; paclitaxel 15 mg/kg/injection IV Q1Dx5 (Group 6), Day 2
  deaths: one out of ten
[3]; paclitaxel 15 mg/kg/injection IV Q1Dx5 (Group 6), Day 12
  animals euthanized due to ataxia: One
[3]; [9]
  tolerability / deaths (in words): tolerated without deaths or mean body weight loss
  complete tumor regressions: one
[4]
  half-life (t1/2): 3.5 ± 0.80 h
[5]; IV Q1Dx5, tumored mice
  maximum tolerated dose (MTD): below 15 mg/kg/injection
[5]; [6]
  tolerability / deaths (in words): toxic
[5]; Paclitaxel 15 mg/kg IV Q1Dx5, day 0 = first treatment
  animals died before day 11: 4 of 5
[5]; [10]
  Survival rate (end of study): 20%
  Tumor free mice (end of study): 0%
[5]; paclitaxel 15 mg/kg/injection IV Q1Dx5, Days 20 and 21
  animals euthanized due to being moribund: two
[5]; paclitaxel 15 mg/kg/injection IV Q1Dx5, both deaths on Day 19
  deaths: two out of five
[5]; paclitaxel 15 mg/kg/injection, Day 13
  tumor weight of the surviving animal: 180 mg
[5]; paclitaxel 15 mg/kg/injection, Day 47
  tumor weight of the surviving animal: 32 mg
